Results from patent US12338443B2, “Photoactivatable Tet expression control system” (JAPAN SCIENCE AND TECHNOLOGY AGENCY, priority 2018, dated 2025).

Assays:
[1] = tested on: pTREtight-Ub-ELuc reporter in HEK293T cells; test: Relationship between Dox concentration and induced gene expression level (FIG. 7); assay type: cell-based, human
Description: In order to analyze the relationship between the Dox concentration and the induced gene expression level, HEK293T cells were seeded in a 24-well plate at 5 to 9×10^4 cells/well, transfected, and assayed in the same manner as in candidate construct screening. Dox was applied to the cells at concentrations of 0, 1, 7.5, 15, 20, 50, and 100 ng/mL for the PA-Tet-OFF constructs and at concentrations of 0, 10, 15, 20, 30, 35, 40, 50, 75, 100, and 250 ng/mL for the PA-Tet-ON constructs. The cells were irradiated with blue light (7.2 W/m^2; pulsed for 2 seconds every minute) for 3 hours.
In addition, for the PA-Tet-OFF system using the PA-Tet-OFF-T2A construct and the PA-Tet-independent system using the PA-Tet-H100Y construct, the influence of DOx concentration on the PA-Tet-controlled expression efficiency was investigated. Furthermore, for the PA-Tet-ON system using a construct obtained by introducing a V10 mutation into the PA-Tet-OFF-T2A construct (PA-Tet-ON-T2A construct), the influence of Dox concentration on the PA-Tet-controlled expression efficiency was investigated. The data represent mean±standard deviation (n=3) obtained from one experiment. In FIGS. 7(A) and 7(B), “*” means p<0.05 (paired student's t-test).

[2] = tested on: brain neurons of mouse pups; test: Light- and Dox-dependent luciferase expression in brain neurons of mouse pups; assay type: in vivo; conditions: PA-Tet-OFF system; after single dosing of Dox 0.1 mg/g
Description: For irradiating the brains of mouse pups with light, anesthetized mice were stimulated through an optical fiber using a blue LED (PLEXBRIGHT®, manufactured by Plexon Inc). After being irradiated with blue light (40 W/m^2; pulsed for 1 second every 15 seconds; continued for 3 hours), the mice were immediately sacrificed, the right brain irradiated with blue light was immediately extracted and lysed, and the luciferase activity thereof was measured.
The mice were treated with Dox. For long-term Dox administration, drinking water containing 1 mg/mL Dox in a 5% by mass sucrose solution was given to the mice. […]
Next, Dox-dependent inhibition of transcriptional activity of the PA-Tet-OFF system in brain neurons was analyzed. […] The luminescence signal intensity induced by the luciferase expression in the brain cells after the light irradiation treatment was measured. Furthermore, for mice treated with Dox (0.1 mg/g (body weight)) 1 hour before the light irradiation treatment, the luminescence signal intensity was also measured in the same manner. In the mouse brain neurons (represented by “Light” in FIG. 25) subjected to the light irradiation treatment, luciferase expression was activated, and the luminescence signal intensity increased. […]
Furthermore, the restoration of light-inducible transcriptional activity after removal of Dox was analyzed in cells transfected with the PA-Tet-OFF system. […]

[3] = tested on: pTREtight-Ub-ELuc reporter in HEK293T cells; test: PA-Tet-independent / PA-Tet-ON construct luciferase assay with or without Dox (Example 3, Table 5); assay type: cell-based, human; conditions: first batch; for An initial construct screening result: Light (relative luminescence signal intensity): blue light
Description: For each construct, a plasmid containing the expression cassette was introduced into HEK293T cells together with a pTREtight-Ub-ELuc reporter, thereby obtaining transformed cells. These cells were irradiated with blue light in the absence of Dox or in the presence of Dox, and the light-dependent transcriptional activity of Ub-ELuc was investigated. All experiments were performed in 3 independent trials (3 batches) to obtain consistent results.

[4] = tested on: pTREtight-Ub-ELuc reporter in HEK293T cells; test: Relationship between Dox concentration and gene expression induction, near-infrared light (Table 9); assay type: cell-based, human; set-up: scale not given here; conditions: 25 μM BV; for Light: near-infrared light 750 nm
Description: Next, for QT4, QT7 and QT8 constructs, the relationship between Dox concentration and gene expression induction was investigated. Specifically, the relationship was investigated in the same manner as in “Functional screening of PA-Tet-OFF candidate constructs” described above, except that HEK293T cells were seeded in a 24-well plate at 6×10^4 cells/well, the medium was replaced with a medium containing 25 μM BV and having Dox concentration described in Table 9 6 hours after transfection, the cells were irradiated with near-infrared light (750 nm, 4.0 mW/cm^2) for 42 hours by being exposed to light for 30 seconds every 180 seconds, and a 750 nm LED (SMBB750D-1100, manufactured by Ushio Inc.) was used as a light source. All experiments were performed in 3 independent trials (3 batches) to obtain consistent results.

[5] = biological target: T1, CIB1 (Arabidopsis thaliana, UniProt Q8GY61); conditions: after light activation; cited from earlier work
T1 sequence (Q8GY61 1-335): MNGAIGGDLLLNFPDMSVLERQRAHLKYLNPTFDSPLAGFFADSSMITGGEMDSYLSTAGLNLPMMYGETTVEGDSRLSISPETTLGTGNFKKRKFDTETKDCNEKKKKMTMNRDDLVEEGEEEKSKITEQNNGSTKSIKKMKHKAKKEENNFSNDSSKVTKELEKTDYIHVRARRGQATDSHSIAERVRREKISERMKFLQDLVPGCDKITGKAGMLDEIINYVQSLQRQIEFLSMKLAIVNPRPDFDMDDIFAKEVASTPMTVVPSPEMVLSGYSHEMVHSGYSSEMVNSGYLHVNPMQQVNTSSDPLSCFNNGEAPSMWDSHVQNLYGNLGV

C[C@H]1c2cccc(O)c2C(=O)C2=C(O)[C@]3(O)C(=O)C(C(N)=O)=C(O)[C@@H](N(C)C)[C@@H]3[C@@H](O)[C@@H]21 [Dox, doxycycline]
extremely low Dox concentration at which the effect brought about by Dox was observed ([1]; PA-Tet-OFF system): 1 ng/mL
extremely low Dox concentration at which the effect brought about by Dox was observed ([1]; PA-Tet-ON system): 10 ng/mL
duration of inhibition of light-induced luciferase expression [2]: 4 days

T86: TetR(I194T)-SPKKK-CIBN no NLS + Cry2 PHR (L348F)-p65 AD-NLSx2 (Element #1 SEQ ID NO: 5, Element #2 SEQ ID NO: 6) [Construct T86]
An initial construct screening result: Light (relative luminescence signal intensity) ([3]; Dox 0 ng/mL): 12.3
An initial construct screening result: Light (relative luminescence signal intensity) ([3]; Dox 75 ng/mL): 0.1
An initial construct screening result: Dark (relative luminescence signal intensity) ([3]; Dox 75 ng/mL, dark): 0.1

QT8: RpBphP1-TSTR-TetR(I194T) + 2xNLS-p65AD-HMEF-Q-PAS1 (SEQ ID NO: 28, 27)
Light ([4]; Dox 0 ng/mL): 152.0
Dark ([4]; Dox 1.0 ng/mL): 14.5
Light ([4]; Dox 1.0 ng/mL): 143.1
Dark ([4]; Dox 2.0 ng/mL): 17.1
Light ([4]; Dox 2.0 ng/mL): 112.2
Dark ([4]; Dox 3.0 ng/mL): 16.0
Light ([4]; Dox 3.0 ng/mL): 108.7
Dark ([4]; Dox 4.0 ng/mL): 15.1
Light ([4]; Dox 4.0 ng/mL): 86.8
Dark ([4]; Dox 5.0 ng/mL): 15.2
Light ([4]; Dox 5.0 ng/mL): 63.9
Dark ([4]; Dox 10.0 ng/mL): 3.1
Light ([4]; Dox 10.0 ng/mL): 7.2

QT4: TetR(I194T)-SPKKK-HMEF-RpBphP1 + 2xNLS-p65AD-HMEF-Q-PAS1 (SEQ ID NO: 26, 27)
Light ([4]; Dox 0 ng/mL): 17.7
Light ([4]; Dox 0.025 ng/mL): 20.6
Light ([4]; Dox 0.050 ng/mL): 10.7
Dark ([4]; Dox 0.100 ng/mL): 0.5
Light ([4]; Dox 0.100 ng/mL): 10.1
Dark ([4]; Dox 0.200 ng/mL): 0.3
Light ([4]; Dox 0.200 ng/mL): 2.9
Dark ([4]; Dox 0.500 ng/mL): 0.2
Dark ([4]; Dox 1.0 ng/mL): 0.2
Light ([4]; Dox 1.0 ng/mL): 0.2

QT7: RpBphP1-TSTR-TetR(I194T) + p65AD-HMEF-Q-PAS1 (SEQ ID NO: 28, 29)
Light ([4]; Dox 0 ng/mL): 53.7
Dark ([4]; Dox 1.0 ng/mL): 2.9
Light ([4]; Dox 1.0 ng/mL): 29.9
Dark ([4]; Dox 2.0 ng/mL): 2.7
Light ([4]; Dox 2.0 ng/mL): 34.7
Light ([4]; Dox 3.0 ng/mL): 25.0
Dark ([4]; Dox 4.0 ng/mL): 1.3
Light ([4]; Dox 4.0 ng/mL): 17.6
Dark ([4]; Dox 5.0 ng/mL): 1.6
Light ([4]; Dox 5.0 ng/mL): 16.4
Dark ([4]; Dox 10.0 ng/mL): 0.3
Light ([4]; Dox 10.0 ng/mL): 3.7

B1: Cry2: Arabidopsis thaliana Cryptochrome 2 photoreceptor binding CIB1 in a blue light-specific manner (protein)
chain: MKMDKKTIVWFRRDLRIEDNPALAAAAHEGSVFPVFIWCPEEEGQFYPGRASRWWMKQSLAHLSQSLKALGSDLTLIKTHNTISAILDCIRVTGATKVVFNHLYDPVSLVRDHTVKEKLVERGISVQSYNGDLLYEPWEIYCEKGKPFTSFNSYWKKCLDMSIESVMLPPPWRLMPITAAAEAIWACSIEELGLENEAEKPSNALLTRAWSPGWSNADKLLNEFIEKQLIDYAKNSKKVVGNSTSLLSPYLHFGEISVRHVFQCARMKQIIWARDKNSEGEESADLFLRGIGLREYSRYICFNFPFTHEQSLLSHLRFFPWDADVDKFKAWRQGRTGYPLVDAGMRELWATGWMHNRIRVIVSSFAVKFLLLPWKWGMKYFWDTLLDADLECDILGWQYISGSIPDGHELDRLDNPALQGAKYDPEGEYIRQWLPELARLPTEWIHHPWDAPLTVLKASGVELGTNYAKPIVDIDTARELLAKAISRTREAQIMIGAAPDEIVADSFEALGANTIKEPGLCPSVSSNDQQVPSAVRYNGSKRVKPEEEEERDMKKSRGFDERELFSTAESSSSSSVFFVSQSCSLASEGKNLEGIQDSSDQITTSLGKNGCK
modifications: Cry2
half-life of spontaneous dissociation from CIB1 [5]: about 5.5 minutes
